Results from patent publication US9096492B2, “Hydrated N-fullerene amino acids, method for producing the latter, and pharmaceutical compositions on the basis thereof” (priority 2011, dated 2015).
Several values for one entry are separate records, joined by “and”; a condition that tells them apart may be missing. Equal entries are not always repeated. Where two headings read alike, the source gives them in different places.

Key:
[1] = Solubility of the isolated product
[2] = test system: HIV, HSV, and influenza virus; assay: Antiviral activity of the Example 3 compound; conditions: against HIV
Text: The antiviral activity of the compound was studied against HIV, HSV, and influenza virus; its antitumor activity was also studied. The compound has high antitumor and antiviral activities against all of the aforementioned viruses. Preferred example embodiments of the invention are given below.

[3] = Antitumor activity of the Example 3 compound
[4] = test system: A/Swine/1976/31 (H1N1) influenza virus; format: in vivo, mice; conditions: Tamiflu 20 mg/kg; for Infectious virus titer (log10EID50/20 mg tissue): lung tissue
[5] = test system: ascites Ehrlich carcinoma cells; assay: Apoptosis in ascites Ehrlich carcinoma cells of treated mice (cytofluorimetric analysis); format: in vivo
[6] = test system: Ehrlich ascites carcinoma; assay: Ehrlich ascites carcinoma in white mice, body weight dynamics
solid Ehrlich carcinoma = assay: Solid Ehrlich carcinoma in white mice, tumor size dynamics; conditions: Cisplatin 5 mg/kg once
[7] = ascites cells having large sizes and granularity (tumor cells)
[8] = ascites cells of moderate size and granularity

In the case of “N-fullerene tris-ω-aminoenanthic acid) hydrate [Example 2]”, the “solubility in CH3CN:H2O (1:10)” value [1] is reported as “soluble”, the “solubility in DMF-H2O (1:100)” value [1] is reported as “soluble” and the solubility in water [1] is reported as “soluble”.

In the case of “N-fullerene tris(8-aminooctanoic acid hydrate) [Example 3]”, the antiviral activity [2] is reported as “high” and the antitumor activity [3] is reported as “high”.

For CCOC(=O)C1=C[C@@H](OC(CC)CC)[C@H](NC(C)=O)[C@@H](N)C1.O=P(O)(O)O [Tamiflu, ethyl(3R,4R,5S)-4-acetamido-5-amino-3-(1-ethylpropoxy)-1-cyclohexene-1-carboxylate phosphate, reference compound], the “Average lifetime (LD)” value ([4]; Summary dose, n=26) was 12.2 days, the “Increase in LD” value ([4]; Summary dose, n=26) was 3.6 days and the Index of protection ([4]; Summary dose, n=26) was 62.8. The “Mortality rate, %” value ([4]; Summary dose, n=26) was 26.9%, the Number of survivors ([4]; Summary dose, n=26) was 19 and the “Size of chronic post-influenza pneumonia sites (% of the total surface area of the lungs)” value ([4]; the lower of the virus doses used, day 15) was 20 ± 5%. The “Average lifetime (LD)” value ([4]; virus 1 LD50, n=13) was 13.5 days, the “Increase in LD” value ([4]; virus 1 LD50, n=13) was 2.9 days and the Index of protection ([4]; virus 1 LD50, n=13) was 71.2. The “Mortality rate, %” value ([4]; virus 1 LD50, n=13) was 15.4%, the Number of survivors ([4]; virus 1 LD50, n=13) was 11 and the “Average lifetime (LD)” value ([4]; virus 10 LD50, n=13) was 11.0 days. For the same molecule, the “Increase in LD” value ([4]; virus 10 LD50, n=13) was 4.4 days, the Index of protection ([4]; virus 10 LD50, n=13) was 58.6 and the “Mortality rate, %” value ([4]; virus 10 LD50, n=13) was 38.5%. For the same molecule, the Number of survivors ([4]; virus 10 LD50, n=13) was 8, the “Infectious virus titer (log10EID50/20 mg tissue)” value ([4]; virus dose 1 LD50) was 3.1 ± 0.1 log10EID50/20 mg tissue and the “Infectious virus titer (log10EID50/20 mg tissue)” value ([4]; virus dose 5 LD50) was 3.8 ± 0.3 log10EID50/20 mg tissue.

In the case of N.N.[Cl][Pt][Cl] [Cisplatin, reference compound], the “AnV^+ 7AAD^+ (late apoptosis)” value [5, 7] is reported as 72.8 ± 10.9%, the “AnV^+ 7AAD^− (early apoptosis)” value [5, 7] is reported as 0.3 ± 0.3% and the “AnV^−7AAD^+ (necrosis)” value [5, 7] is reported as 26.6% and 26.6 ± 11.1%. The “AnV^−7AAD^− (living cells)” value [5, 7] was 0.4 ± 0.2%, the “Percent amount of cells with the phenotype AnV^+ 7AAD^+ (late apoptosis)” value [5, 8] was 3.5 ± 2.4% and the “Percent amount of cells with the phenotype AnV^+ 7AAD^− early apoptosis” value [5, 8] was 41.1 ± 11.3%. For the same molecule, the “Percent amount of cells with the phenotype AnV^−7AAD^+ (necrosis)” value [5, 8] was 0.1 ± 0.2%, the “Percent amount of cells with the phenotype AnV^−7AAD^− (living cells)” value [5, 8] was 55.2 ± 11.0% and the “Animal body weight” value ([6]; day 1 post tumor transplantation) was 19.1 ± 5 g. The “Animal body weight” value ([6]; day 3 post tumor transplantation) was 19.3 ± 2.7 g, the “Animal body weight” value ([6]; day 5 post tumor transplantation) was 19.4 ± 2.5 g and the “Animal body weight” value ([6]; day 8 post tumor transplantation) was 19.8 ± 2.2 g. For the same molecule, the “Animal body weight” value ([6]; day 10 post tumor transplantation) was 20.7 ± 2.4 g, the “Animal body weight” value ([6]; day 13 post tumor transplantation) was 21.4 ± 1.5 g and the “Animal body weight” value ([6]; day 15 post tumor transplantation) was 21.8 ± 1.6 g. For the same molecule, the “Tumor size (mm^3)” value (solid Ehrlich carcinoma; day 8 post transplantation) was 56.5 mm^3, the “Tumor size (mm^3)” value (solid Ehrlich carcinoma; day 13 post transplantation) was 249.2 mm^3 and the “Tumor size (mm^3)” value (solid Ehrlich carcinoma; day 17 post transplantation) was 464.3 mm^3. For the same molecule, the “Tumor size (mm^3)” value (solid Ehrlich carcinoma; day 21 post transplantation) was 1071.9 mm^3, the “Tumor size (mm^3)” value (solid Ehrlich carcinoma; day 24 post transplantation) was 1743.3 mm^3 and the “Tumor size (mm^3)” value (solid Ehrlich carcinoma; day 28 post transplantation) was 1269.4 mm^3.
